# Test results published in patent US20080175926A1, “Process for treating storage reservoirs contaminated with mycotoxins” (priority 2006, published 2008).
# Legend:
# Penicillium spp. = assay: Thermal fogging with eugenol of empty grain storage cells; Airtest trapping of Penicillium colonies on Petri dishes; conditions: for Penicillium contamination (number colonies/Petri dish) After treatment: Airtest 100 l, 10 days after treatment
# Description: (§1) Six cells (noted ‘20’, ‘L’, ‘12’, ‘F’, ‘8’ and ‘I’) were studied. These are concrete cells with a conical bottom (bottom for completely emptying the cell and eliminating more readily the debris and dust before ensilaging the next harvest). The cells identified by a number have a capacity of 350 t, those identified by a letter have a capacity of 50 t. The level of contamination of the six cells was evaluated by trapping the contaminated spores or particles using an Airtest introduced into the cell via an access hatch located at the base of the cell.
# (§2) The Petri dishes 90 mm in diameter, placed in the Airtest and constituting the trap, contained a Malt Agar+Triton medium; the addition of triton modifies the development of the fungal colonies, which remain compact and are easy to count. The volume of air passing through the Airtest was set at 100 I, except for one cell in which we tested 4 different volumes of air (10 l, 20 l, 40 l, 100 l). For each mode, three repetitions (3Petri dishes) were carried out.
# (§3) Two types of trapping were carried out; atmospheric trapping and trapping on the […]. In fact, these walls have rough patches and can retain mould spores or infected particles. The Airtest was placed approximately 5 mm from the wall.
# (§4) […]
# (§5) The eugenol thermal fogging treatment was carried out on a platform on which the thermal fogging device was installed.
# (§6) 4 l and 20 l of eugenol, respectively, were subjected to thermal fogging at 230° C. (for approximately ¾ h) in cell L (≈50 m^3) and in cell 12 (≈350 m^3).
# Aspergillus spp. = assay: Thermal fogging with eugenol of empty grain storage cells; Airtest trapping of Aspergillus colonies on Petri dishes; conditions: for Aspergillus contamination (number colonies/Petri dish) After treatment: Airtest 100 l, 10 days after treatment
# Description: as §1, §2, §3, §4, §5, §6
# [1] = thermal fogging of eugenol in the cells, atmospheric and wall contamination
smiles,measurement,setting,value
C=CCc1ccc(O)c(OC)c1 [eugenol],Penicillium contamination (number colonies/Petri dish) After treatment,"Penicillium spp.; cell 12 (wheat, ≈350 m^3), 20 l eugenol thermal fogging at 230° C., atmosphere trapping, before treatment 1240",400 number colonies/Petri dish
same,Penicillium contamination (number colonies/Petri dish) After treatment,"Penicillium spp.; cell 12 (wheat, ≈350 m^3), 20 l eugenol thermal fogging at 230° C., wall trapping, before treatment 1860",207 number colonies/Petri dish
same,Penicillium contamination (number colonies/Petri dish) After treatment,"Penicillium spp.; cell L (wheat, ≈50 m^3), 4 l eugenol thermal fogging at 230° C., atmosphere trapping, before treatment 2650",106 number colonies/Petri dish
same,Penicillium contamination (number colonies/Petri dish) After treatment,"Penicillium spp.; cell L (wheat, ≈50 m^3), 4 l eugenol thermal fogging at 230° C., wall trapping, before treatment 7500",85 number colonies/Petri dish
same,level of Penicillium spp. contamination after treatment (in words),"Penicillium spp.; cells L and 12, thermal fogging with eugenol at 230° C., atmospheric and wall contamination",clear decrease
same,effectiveness against Penicillium spp. present in the grain storage cells (in words),Penicillium spp.; [1],very effective
same,Aspergillus contamination (number colonies/Petri dish) After treatment,"Aspergillus spp.; cell 12 (wheat, ≈350 m^3), 20 l eugenol thermal fogging at 230° C., atmosphere trapping, before treatment 77",0 number colonies/Petri dish
same,Aspergillus contamination (number colonies/Petri dish) After treatment,"Aspergillus spp.; cell 12 (wheat, ≈350 m^3), 20 l eugenol thermal fogging at 230° C., wall trapping, before treatment 85",0 number colonies/Petri dish
same,Aspergillus spp. contamination after treatment (in words),"Aspergillus spp.; cell 12, 20 l eugenol thermal fogging at 230° C.",completely controlled
same,Aspergillus contamination (number colonies/Petri dish) After treatment,"Aspergillus spp.; cell L (wheat, ≈50 m^3), 4 l eugenol thermal fogging at 230° C., atmosphere trapping, before treatment 0",0 number colonies/Petri dish
same,Aspergillus contamination (number colonies/Petri dish) After treatment,"Aspergillus spp.; cell L (wheat, ≈50 m^3), 4 l eugenol thermal fogging at 230° C., wall trapping, before treatment 0",0 number colonies/Petri dish
same,effectiveness against Aspergillus spp. present in the grain storage cells (in words),Aspergillus spp.; [1],very effective
